Each structure is given as a SMILES string.

The assay addresses human PAD4 (hPAD4) (Homo sapiens, UniProt Q9UM07). The assay is described as follows: RFMS human PAD4 functional assay (rapid-fire mass spectrum). The class given is biochemical. The conditions noted are these: 5 nM hPAD4 enzyme, 250 μM BAEE, 50 μM Calcium; 30 min preincubation, 90 min reaction at 37° C. The gist of the method:
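PAD4 (10 nM) preincubated 30 min with compound (top final 50 μM), then BAEE substrate added in pH 7.5 HEPES buffer with DTT, 50 μM calcium, TPEN; 90 min at 37° C. After TCA quench, citrulline derivatized with phenyl glyoxal (4 mM final, 30 min, 37° C) and quantified by RapidFire MS against internal standard.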

Chain of human PAD4 (hPAD4) (Q9UM07 whole entry): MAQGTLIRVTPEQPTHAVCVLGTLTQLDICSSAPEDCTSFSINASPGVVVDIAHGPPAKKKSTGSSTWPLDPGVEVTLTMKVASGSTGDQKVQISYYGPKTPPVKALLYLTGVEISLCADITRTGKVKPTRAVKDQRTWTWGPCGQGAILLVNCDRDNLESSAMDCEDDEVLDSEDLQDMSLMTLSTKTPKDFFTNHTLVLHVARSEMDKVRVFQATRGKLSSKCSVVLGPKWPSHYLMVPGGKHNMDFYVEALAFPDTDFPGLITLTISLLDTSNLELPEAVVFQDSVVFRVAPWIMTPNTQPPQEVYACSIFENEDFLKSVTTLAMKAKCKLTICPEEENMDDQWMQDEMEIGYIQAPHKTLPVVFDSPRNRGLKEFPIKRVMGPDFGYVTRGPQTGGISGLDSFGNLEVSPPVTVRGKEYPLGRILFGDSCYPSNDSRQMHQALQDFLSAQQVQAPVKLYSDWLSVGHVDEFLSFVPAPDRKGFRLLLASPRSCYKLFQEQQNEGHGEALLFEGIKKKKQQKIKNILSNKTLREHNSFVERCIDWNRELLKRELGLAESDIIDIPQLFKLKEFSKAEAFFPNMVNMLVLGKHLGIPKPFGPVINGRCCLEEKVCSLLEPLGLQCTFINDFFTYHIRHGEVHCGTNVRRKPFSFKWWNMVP

As usually defined, the IC50 is the concentration that inhibits the measured activity by half. In the case of `COc1cc(C(=O)N2CC3CCC2[C@@H]3N)cc2nc(-c3cc4ccccc4n3CC3CC3)n(Cc3cnn(-c4cccc(C)n4)c3)c12` (stereo partly drawn) [Example 381, (7R)-2-{2-[1-(cyclopropylmethyl)-1H-indol-2-yl]-7-methoxy-1-{[1-(6-methylpyridin-2-yl)-1H-pyrazol-4-yl]methyl}-1H-1,3-benzodiazole-5-carbonyl}-2-azabicydo[2.2.1]heptan-7-amine], the half-inhibitory concentration (IC50) was 37 nM. Then `COc1cc(C(=O)N2CC3CCC2[C@@H]3N)cc2nc(-c3cc4ccccc4n3CC3CC3)n(Cc3cnn(-c4cnc(C#N)c(F)c4)c3)c12` (stereo partly drawn) [Example 394, 5-[4-({5-[(7R)-7-amino-2-azabicyclo[2.2.1]heptane-2-carbonyl]-2-[1-(cyclopropyimethyl)-1H-indol-2-yl]-7-methoxy-1H-1,3-benzodiazol-1-yl}methyl)-1H-pyrazol-1-yl]-3-fluoropyridine-2-carbonitrile], with 50 nM; and `COc1cc(C(=O)N2C[C@H](N)C[C@@H](F)C2)cc2nc(-c3cc4ccccc4n3CC3CC3)n(Cc3ccon3)c12` [Example 278, (3R,5R)-1-{2-[1-(cyclopropylmethyl)-1H-indol-2-yl]-7-methoxy-1-[(1,2-oxazol-3-yl)methyl]-1H-1,3-benzodiazole-5-carbonyl)-5-fluoropiperidin-3-amine], with 460 nM.

As for `COc1cc(C(=O)N2C[C@H]3CC[C@@H]2[C@@H]3N)cc2nc(-c3cc4cccnc4n3CC3CC3)n(CC3CN(c4cncc(C)n4)C3)c12` [Example 63, (1R,4R,7R)-2-{2-[1-(cyclopropylmethyl)-1H-pyrrolo[2,3-b]pyridin-2-yl]-7-methoxy-1-{[1-(6-methylpyrazin-2-yl)azetidin-3-yl]methyl}-1H-1,3-benzodiazole-5-carbonyl}-2-azabicyclo[2.2.1]heptan-7-amine], the IC50 came to 199 nM.

As for `Cc1cc(C(=O)N2CC3CCC2[C@@H]3N)cc2nc(-c3cc4ccccc4n3CC3CC3)n(CC3CN(C(=O)c4ccc(C#N)cc4)C3)c12` (stereo partly drawn) [Example 449, 4-[3-({5-[(7R)-7-amino-2-azabicyclo[2.2.1]heptane-2-carbonyl]-2-[1-(cyclopropylmethyl)-1H-indol-2-yl]-7-methyl-1H-1,3-benzodiazol-1-yl}methyl)azetidine-1-carbonyl]benzonitrile], the IC50 worked out at 44 nM.

Consider `COc1cc(C(=O)N2C[C@H]3CC[C@@H]2[C@@H]3N)cc2nc(-c3cc4cccnc4n3CC3CC3)n(CC3CCN(C(=O)c4ccnc(F)c4)CC3)c12` [Example 197, (1R,4R,7R)-2-{2-[1-(cyclopropylmethyl)-1H-pyrrolo[2,3-b]pyridin-2-yl]-1-{[1-(2-fluoropyridine-4-carbonyl)piperidin-4-yl]methyl}-7-methoxy-1H-1,3-benzodiazole-5-carbonyl}-2-azabicyclo[2.2.1]heptan-7-amine], for which the IC50 worked out at 117 nM. The result for `COc1cc(C(=O)N2C[C@H]3CC[C@@H]2[C@@H]3N)cc2nc(-c3cc4ccccc4n3CC3CC3)n(CC3CN(C(=O)c4cccnc4)C3)c12` [Example 171, (1R,4R,7R)-2-{2-[1-(cyclopropylmethyl)-1H-indol-2-yl]-7-methoxy-1-{[1-(pyridine-3-carbonyl)azetidin-3-yl]methyl}-1H-1,3-benzodiazole-5-carbonyl}-2-azabicyclo[2.2.1]heptan-7-amine] reads 41 nM; that for `COc1cc(C(=O)N2CC3CCC2[C@@H]3N)cc2nc(-c3cc4cccnc4n3CC3CC3)n(Cc3cnn(-c4ncc(Cl)cc4F)c3)c12` (stereo partly drawn) [Example 342, ((7R)-7-amino-2-azabicyclo[2.2.1]heptan-2-yl)(1-((1-(5-chloro-3-fluoropyridin-2-yl)-1H-pyrazol-4-yl)methyl)-2-(1-(cyclopropylmethyl)-1H-pyrrolo[2,3-b]pyridin-2-yl)-7-methoxy-1H-benzo[d]imidazol-5-yl)methanone], 26 nM.

For the compound `COc1cc(C(=O)N2CC3CCC2[C@@H]3N)cc2nc(-c3cc4ccccc4n3CC3CC3)n(Cc3cnn(-c4ccncc4)c3)c12` (stereo partly shown) [Example 362], the IC50 is 25 nM.

For the compound `COc1cc(C(=O)N2C[C@H]3CC[C@@H]2[C@@H]3N)cc2nc(-c3cc4ccccc4n3CC3CC3)n(CC3CN(C(=O)c4ccc(C#N)cc4F)C3)c12` [Example 163, 4-[3-({5-[(1R,4R,7R)-7-amino-2-azabicyclo[2.2.1]heptane-2-carbonyl]-2-[1-(cyclopropylmethyl)-1H-indol-2-yl]-7-methoxy-1H-1,3-benzodiazol-1-yl}methyl)azetidine-1-carbonyl]-3-fluorobenzonitrile], the IC50 was 26 nM. The result for `COc1cc(C(=O)N2CC3CCC2[C@@H]3N)cc2nc(-c3cc4ccccc4n3CC3CC3)n(CC3CCS(=O)(=O)C3)c12` (stereo partly drawn) [Example 264, ((7R)-7-amino-2-azabicyclo[2.2.1]heptan-2-yl)(2-(1-(cyclopropylmethyl)-1H-indol-2-yl)-1-((1,1-dioxidotetrahydrothiophen-3-yl)methyl)-7-methoxy-1H-benzo[d]imidazol-5-yl)methanone] reads 57 nM; that for `COc1cc(C(=O)N2C[C@H]3CC[C@@H]2[C@@H]3N)cc2nc(-c3cc4ccccc4n3CC3CC3)n(CCN3CCNC3=O)c12` [Example 279, 1-(2-{5-[(1R,4R,7R)-7-amino-2-azabicyclo[2.2.1]heptane-2-carbonyl]-2-[1-(cyclopropylmethyl)-1H-indol-2-yl]-7-methoxy-benzodiazol-1-yl}ethyl)imidazolidin-2-one], 491 nM.

Regarding `COc1cc(C(=O)N2C[C@H]3CC[C@@H]2[C@@H]3N)cc2nc(-c3cc4cccnc4n3CC3CC3)n(CC3CN(C(=O)C4CCC4)C3)c12` [Example 114, (1R,4R,7R)-2-{1-[(1-cyclobutanecarbonylazetidin-3-yl)methyl]-2-[1-(cyclopropylmethyl)-1H-pyrrolo[2,3-b]pyridin-2-yl]-7-methoxy-1H-1,3-benzodiazole-5-carbonyl}-2-azabicyclo[2.2.1]heptan-7-amine], the IC50 turned out to be 54 nM. For the compound `COc1cc(C(=O)N2CC3CCC2[C@@H]3N)cc2nc(-c3cc4ccccc4n3CC3CC3)n(CC3CN(C(=O)c4ccncn4)C3)c12` (stereo partly drawn) [Example 437, (7R)-2-{2-[1-(cyclopropylmethyl)-1H-indol-2-yl]-7-methoxy-1-{[1-(pyrimidine-4-carbonyl)azetidin-3-yl]methyl}-1H-1,3-benzodiazole-5-carbonyl}-2-azabicyclo[2.2.1]heptan-7-amine], the IC50 was 34 nM. With `COC(=O)N1CC(Cn2c(-c3cc4cccnc4n3CC3CC3)nc3cc(C(=O)N4C[C@H]5CC[C@@H]4[C@@H]5N)cc(OC)c32)C1` [Example 132, methyl 3-({5-[(1R,4R,7R)-7-amino-2-azabicyclo[2.2.1]heptane-2-carbonyl]-2-[1-(cyclopropylmethyl)-1H-pyrrolo[2,3-b]pyridin-2-yl]-7-methoxy-1H-1,3-benzodiazol-1-yl}methyl)azetidine-1-carboxylate], the concentration for half-maximal inhibition (IC50) came out at 148 nM. The result for `COc1cc(C(=O)N2C[C@H]3CC[C@@H]2[C@@H]3N)cc2nc(-c3cc4cccnc4n3CC3CC3)n(C[C@H]3CCNC3)c12` [Example 263, (1R,4R,7R)-2-{2-[1-(cyclopropylmethyl)-1H-pyrrolo[2,3-b]pyridin-2-yl]-7-methoxy-1-{[(3S)-pyrrolidin-3-yl]methyl}-1H-1,3-benzodiazole-5-carbonyl}-2-azabicyclo[2.2.1]heptan-7-amine] reads 20 nM.
